Assay results as given in patent publication US20070274956A1, “Plant Germination Inhibitor And Method Of Use Thereof” (priority 2004, published 2007).

Test system: Oryzias latipes var.
Experiment: Harm to fish grown in treated water
Assay type: in vivo
Settings: 10 males and 10 females grown in aqueous solution, 1×10^−2 g/l; one week
Procedure: Forty Oryzias latipes var. (20 males and 20 females) were divided into two groups (each group: 10 males and 10 females). One group was grown in an aqueous solution of the coloring matter xylindein (1×10^−2 g/l) and the other was grown in water in the presence of wood on which mycelia of Chlorociboria aeruginosa developed and which was rotten and stained blue.

SMILES: CCC[C@H]1Cc2c(c(O)c3c(=O)cc4oc5c6c(c(O)c7c(=O)cc8oc2c3c4c8c57)C(=O)O[C@@H](CCC)C6)C(=O)O1 [xylindein]
- anomaly in the fish: no anomaly was observed
